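Assay format: 96-well plates, 48-hour exposure. GI50 is the concentration that inhibits growth by half. TGI marks complete inhibition of growth.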
What was measured:
Experiment in all cases: NCI-60 cell line screen, 48 h
LXFL 529 NSCLC = tested on: LXFL 529 NSCLC
M14 melanoma = tested on: M14 melanoma
TK-10 renal = tested on: TK-10 renal
KM20L2 colon = tested on: KM20L2 colon
KM12 colon = tested on: KM12 colon
NCI-H522 lung = tested on: NCI-H522 lung
DMS 273 small cell lung = tested on: DMS 273 small cell lung
ACHN renal = tested on: ACHN renal
K-562 leukemia = tested on: K-562 leukemia
SF-268 CNS = tested on: SF-268 CNS
SF-295 CNS = tested on: SF-295 CNS
NCI-H460 lung = tested on: NCI-H460 lung
SK-MEL-28 melanoma = tested on: SK-MEL-28 melanoma
XF 498 CNS = tested on: XF 498 CNS
OVCAR-5 ovarian = tested on: OVCAR-5 ovarian
SNB-75 CNS = tested on: SNB-75 CNS
CCRF-CEM leukemia = tested on: CCRF-CEM leukemia
OVCAR-8 ovarian = tested on: OVCAR-8 ovarian
CAKI-1 renal = tested on: CAKI-1 renal
SK-MEL-5 melanoma = tested on: SK-MEL-5 melanoma
LOX IMVI melanoma = tested on: LOX IMVI melanoma
OVCAR-4 ovarian = tested on: OVCAR-4 ovarian
HOP-92 NSCLC = tested on: HOP-92 NSCLC
SW-620 colon = tested on: SW-620 colon
IGROV1 ovarian = tested on: IGROV1 ovarian
HL-60(TB) leukemia = tested on: HL-60(TB) leukemia
SN12C renal = tested on: SN12C renal
DMS 114 small cell lung = tested on: DMS 114 small cell lung
SK-MEL-2 melanoma = tested on: SK-MEL-2 melanoma
M19-MEL melanoma = tested on: M19-MEL melanoma
COLO 205 colon = tested on: COLO 205 colon
RPMI-8226 leukemia = tested on: RPMI-8226 leukemia
HT29 colon = tested on: HT29 colon
UACC-257 melanoma = tested on: UACC-257 melanoma
A549 NSCLC = tested on: A549 NSCLC
A498 renal = tested on: A498 renal
RXF 393 renal = tested on: RXF 393 renal
OVCAR-3 ovarian = tested on: OVCAR-3 ovarian
DLD-1 colon = tested on: DLD-1 colon
HOP-62 NSCLC = tested on: HOP-62 NSCLC
MALME-3M melanoma = tested on: MALME-3M melanoma
RXF-631 renal = tested on: RXF-631 renal
MOLT-4 leukemia = tested on: MOLT-4 leukemia
HCT-15 colon = tested on: HCT-15 colon
U251 CNS = tested on: U251 CNS
786-0 renal = tested on: 786-0 renal
EKVX NSCLC = tested on: EKVX NSCLC
NCI-H23 lung = tested on: NCI-H23 lung
UACC-62 melanoma = tested on: UACC-62 melanoma
SK-OV-3 ovarian = tested on: SK-OV-3 ovarian

SMILES: O=c1ccc2ccccc2cc1[O-].O=c1ccc2ccccc2cc1[O-].[O]=[U+2]=[O]
- GI50 (LXFL 529 NSCLC): 16.8 µM
- TGI (LXFL 529 NSCLC): 51.6 µM
- GI50 (M14 melanoma): 16.9 µM
- TGI (M14 melanoma): 54.5 µM
- GI50 (TK-10 renal): 17 µM
- TGI (TK-10 renal): 66.3 µM
- GI50 (KM20L2 colon): 4.5 µM
- TGI (KM20L2 colon): 90.1 µM
- GI50 (KM12 colon): 7.15 µM
- TGI (KM12 colon): 69.7 µM
- GI50 (NCI-H522 lung): 11.6 µM
- TGI (NCI-H522 lung): 56 µM
- GI50 (DMS 273 small cell lung): 6.71 µM
- TGI (DMS 273 small cell lung): > 100 µM
- GI50 (ACHN renal): 14.2 µM
- TGI (ACHN renal): 33.1 µM
- GI50 (K-562 leukemia): 6.75 µM
- TGI (K-562 leukemia): > 100 µM
- GI50 (SF-268 CNS): 22.2 µM
- TGI (SF-268 CNS): 51.8 µM
- GI50 (SF-295 CNS): 17.7 µM
- TGI (SF-295 CNS): 63.5 µM
- GI50 (NCI-H460 lung): 13.6 µM
- TGI (NCI-H460 lung): > 100 µM
- GI50 (SK-MEL-28 melanoma): 15.3 µM
- TGI (SK-MEL-28 melanoma): 47.5 µM
- GI50 (XF 498 CNS): 19.5 µM
- TGI (XF 498 CNS): 40 µM
- GI50 (OVCAR-5 ovarian): 30.1 µM
- TGI (OVCAR-5 ovarian): > 100 µM
- GI50 (SNB-75 CNS): 14 µM
- TGI (SNB-75 CNS): 32.8 µM
- GI50 (CCRF-CEM leukemia): 6.14 µM
- TGI (CCRF-CEM leukemia): > 100 µM
- GI50 (OVCAR-8 ovarian): 8.83 µM
- TGI (OVCAR-8 ovarian): 59.9 µM
- GI50 (CAKI-1 renal): 9.44 µM
- TGI (CAKI-1 renal): 51.9 µM
- GI50 (SK-MEL-5 melanoma): 4.99 µM
- TGI (SK-MEL-5 melanoma): 29.4 µM
- GI50 (LOX IMVI melanoma): 14.1 µM
- TGI (LOX IMVI melanoma): > 100 µM
- GI50 (OVCAR-4 ovarian): 14.7 µM
- TGI (OVCAR-4 ovarian): 55.1 µM
- GI50 (HOP-92 NSCLC): 28.1 µM
- TGI (HOP-92 NSCLC): 72.1 µM
- GI50 (SW-620 colon): 7.76 µM
- TGI (SW-620 colon): 39.7 µM
- GI50 (IGROV1 ovarian): 23.4 µM
- TGI (IGROV1 ovarian): 84.5 µM
- GI50 (HL-60(TB) leukemia): 14 µM
- TGI (HL-60(TB) leukemia): 52.3 µM
- GI50 (SN12C renal): 23.5 µM
- TGI (SN12C renal): 64.1 µM
- GI50 (DMS 114 small cell lung): 19.9 µM
- TGI (DMS 114 small cell lung): 55.3 µM
- GI50 (SK-MEL-2 melanoma): 11.7 µM
- TGI (SK-MEL-2 melanoma): 38.1 µM
- GI50 (M19-MEL melanoma): 24.8 µM
- TGI (M19-MEL melanoma): 96.7 µM
- GI50 (COLO 205 colon): 25.3 µM
- TGI (COLO 205 colon): 71.7 µM
- GI50 (RPMI-8226 leukemia): 17 µM
- TGI (RPMI-8226 leukemia): > 100 µM
- GI50 (HT29 colon): 2510 nM
- TGI (HT29 colon): 6.97 µM
- GI50 (UACC-257 melanoma): 6.19 µM
- TGI (UACC-257 melanoma): 44.3 µM
- GI50 (A549 NSCLC): 4.78 µM
- TGI (A549 NSCLC): 56 µM
- GI50 (A498 renal): 18.6 µM
- TGI (A498 renal): 43.1 µM
- GI50 (RXF 393 renal): 14.4 µM
- TGI (RXF 393 renal): 40 µM
- GI50 (OVCAR-3 ovarian): 8.28 µM
- TGI (OVCAR-3 ovarian): 50.1 µM
- GI50 (DLD-1 colon): 19.5 µM
- TGI (DLD-1 colon): > 100 µM
- GI50 (HOP-62 NSCLC): 23.9 µM
- TGI (HOP-62 NSCLC): 53.8 µM
- GI50 (MALME-3M melanoma): 5.72 µM
- TGI (MALME-3M melanoma): 26.3 µM
- GI50 (RXF-631 renal): 11.1 µM
- TGI (RXF-631 renal): 41.6 µM
- GI50 (MOLT-4 leukemia): 4.71 µM
- TGI (MOLT-4 leukemia): 46.2 µM
- GI50 (HCT-15 colon): 17.6 µM
- TGI (HCT-15 colon): > 100 µM
- GI50 (U251 CNS): 16.5 µM
- TGI (U251 CNS): 46.5 µM
- GI50 (786-0 renal): 15 µM
- TGI (786-0 renal): 40.8 µM
- GI50 (EKVX NSCLC): 10.4 µM
- TGI (EKVX NSCLC): 55.7 µM
- GI50 (NCI-H23 lung): 27.2 µM
- TGI (NCI-H23 lung): 90.7 µM
- GI50 (UACC-62 melanoma): 16.9 µM
- TGI (UACC-62 melanoma): 39.6 µM
- GI50 (SK-OV-3 ovarian): 30.2 µM
- TGI (SK-OV-3 ovarian): 71.2 µM

Source: PubChem BioAssay (NCI)
